Experimental data taken from patent US5736556A, “Tropane-2-aldoxime derivatives as nevro transmitter reuptake inhibitors” (NeuroSearch A/S, priority 1994, dated 1998).
Where a name gives a salt, the structure may show the parent alone.

Assays:
[1] = molecular target: T1, dopamine transporter (^3 H-dopamine uptake) (Rattus norvegicus, UniProt P23977); assay: In vitro inhibition of ^3 H-dopamine (^3 H-DA) uptake in striatal synaptosomes; type: biochemical, rat (male Wistar); conditions: ^3 H-DA 1 nM, 25 min at 37° C.
T1 construct: Corpi striati from male Wistar rats (150-200 g) are homogenized; from tissue; host or cells: P2 synaptosomes of corpus striatum, male Wistar rats
Excerpt: (§1) The compounds of the invention have also been tested for their ability to inhibit reuptake of dopamine(DA) noradrenalin(NA) and serotonin(5-HT) in synaptosomes.
(§2) Specific neurotransmitter transporters/uptake sites on nerve terminals presumably function to terminate neuronal signaling by removing the neurotransmitters dopamine, noradrenaline and serotonin, respectively, from the synaptic cleft. The activity of the transporter integral proteins can be measured in vitro by synaptosomal uptake of ^3 H-dopamine, ^3 H-noradrenaline and ^3 H-serotonine, respectively.
In vitro inhibition of ^3 H-dopamine (^3 H-DA) uptake in striatal synaptosomes
Tissue preparations: Preparations are performed at 0°-4° C. unless otherwise indicated. Corpi striati from male Wistar rats (150-200 g) are homogenized for 5-10 sec in 100 volumes of ice-cold 0.32M sucrose containing 1 mM pargyline using an Ultra-Turrax homogenizer. Monoamine oxidase activity will be inhibited in the presence of pargyline. The homogenate is centrifuged at 1000×g for 10 min. The resulting supermatant is then centrifuged at 27,000×g for 50 min and the supernatant is discarded. The pellet (P2) is resuspended in oxygenated (equilibrated with an atmosphere of 96% O2 : 4% CO2 for at least 30 min) Krebs-Ringer incubation buffer (8000 ml per g of original tissue) at pH 7.2 containing 122 mM NaCl, 0.16 mM EDTA, 4.8 mM KCl, 12.7 mM Na2 HPO4, 3.0 mM NaH2 PO4, 1.2 mM MgSO4, 1 mM CaCl2, 10 mM glucose and 1 mM ascorbic acid.
(§3) Assay: Aliquots of 4.0 ml tissue suspension are added to 100 μl of test solution and 100 μl of ^3 H-DA (1 nM, final concentration), mixed and incubated for 25 min at 37° C. Non-specific uptake is determined using benztropine (10 μM, final concentration). After incubation the samples are poured directly onto Whatman GF/C glass fibre filters under suction. […] The amount of radioactivity on the filters is determined by conventional liquid scintillation counting. Specific uptake is calculated as the difference between total uptake and non-specific uptake. […]

[2] = molecular target: T2, dopamine transporter (Rattus norvegicus, UniProt P23977); assay: In vitro inhibition of ^3 H-WIN 35428 binding (corpus striatum); parameters: species or system rat (male Wistar); conditions: rat corpus striatum, ^3 H-WIN 35428 1 nM, 60 min at 2° C.; read-out: in vitro IC50
T2 construct: Corpus striatum from male Wistar rats (150-200 g) is homogenized; from tissue; host or cells: corpus striatum of male Wistar rats
Excerpt: The compounds of the present invention have been tested for their ability to bind to the dopamine transporter in the following tests for in vitro and in vivo inhibition of ^3 H-WIN 35428.
In vitro inhibition of ^3 H-WIN 35428 binding
Dopamine transporters/uptake sites on nerve terminals presumably function to terminate neuronal signaling by removing dopamine from the synaptic cleft. The activity or presence of the dopamine transporter integral protein can be measured in vitro with synaptosomal uptake of ^3 H-dopamine or membrane binding assays with ^3 H-ligands known to bind to the transporter.
Numerous ligands of several structural types have been reported to bind at the dopamine uptake site, but it remains questionable whether their binding sites are identical to that of cocaine.
Tissue preparation: Preparations are performed at 0°-4° C. unless otherwise indicated. Corpus striatum from male Wistar rats (150-200 g) is homogenized for 5-10 sec in 10 ml NaH2 PO4 (50 mM, pH 7.4) using an Ultra-Turrax homogenizer. The suspension is centrifuged at 27,000×g for 15 min. The supernatant is discarded and the pellet is resuspended in 50 mM NaH2 PO4, pH 7.4 (1000 ml per g of original tissue) and used for binding assays.
Assay: Aliquots of 0.5 ml tissue are added to […] of ^3 H-WIN 35428 (1 nM, final concentration), mixed and incubated for 60 min at 2° C. Non-specific binding is determined using cocaine ([…], final concentration). After incubation the samples are added 5 ml of ice-cold buffer and poured directly onto Whatman GF/C glass fibre filters under suction and immediately washed with 5 ml ice-cold buffer. The amount of radioactivity on the filters is determined by conventional liquid scintillation counting. Specific binding is total binding minus non-specific binding.
25-75% inhibition of specific binding must be obtained, before calculation of an IC50. The test value is given as IC50 (the concentration (μM) of the test substance which inhibits the specific binding of ^3 H-WIN 35428 by 50%).

[3] = molecular target: T3, ^3 H-5-HT (serotonin) uptake (serotonin transporter) (Rattus norvegicus, UniProt P31652); assay: In vitro inhibition of ^3 H-5-hydroxytryptamine (^3 H-5-HT, serotonin) uptake in cortical synaptosomes; type: biochemical, rat (male Wistar); conditions: ^3 H-5-HT 1 nM, 30 min at 37° C.
T3 construct: Cerebral cortices from male Wistar rats (150-200 g) are homogenized; from tissue; host or cells: P2 synaptosomes of cerebral cortex, male Wistar rats
Excerpt: as §1, §2
In vitro inhibition of ^3 H-5-hydroxytryptamine ^3 H-5-HT, serotonin) uptake in cortical synaptosomes
Tissue preparation: Preparations are performed at 0°-4° C. unless otherwise indicated. Cerebral cortices from male Wistar rats (150-200 g) are homogenized for 5-10 sec in 100 volumes of ice-cold 0.32M sucrose containing 1 mM pargyline using an Ultra-Turrax homogenizer. […]
as §3, with “H-5-HT” for “H-DA”, “30” for “25”, “citalopram (1” for “benztropine (10”, “concentration).” for “concentration). After incubation the samples are poured directly onto Whatman GF/C glass fibre filters under suction.”

T3 sequence (P31652 whole entry): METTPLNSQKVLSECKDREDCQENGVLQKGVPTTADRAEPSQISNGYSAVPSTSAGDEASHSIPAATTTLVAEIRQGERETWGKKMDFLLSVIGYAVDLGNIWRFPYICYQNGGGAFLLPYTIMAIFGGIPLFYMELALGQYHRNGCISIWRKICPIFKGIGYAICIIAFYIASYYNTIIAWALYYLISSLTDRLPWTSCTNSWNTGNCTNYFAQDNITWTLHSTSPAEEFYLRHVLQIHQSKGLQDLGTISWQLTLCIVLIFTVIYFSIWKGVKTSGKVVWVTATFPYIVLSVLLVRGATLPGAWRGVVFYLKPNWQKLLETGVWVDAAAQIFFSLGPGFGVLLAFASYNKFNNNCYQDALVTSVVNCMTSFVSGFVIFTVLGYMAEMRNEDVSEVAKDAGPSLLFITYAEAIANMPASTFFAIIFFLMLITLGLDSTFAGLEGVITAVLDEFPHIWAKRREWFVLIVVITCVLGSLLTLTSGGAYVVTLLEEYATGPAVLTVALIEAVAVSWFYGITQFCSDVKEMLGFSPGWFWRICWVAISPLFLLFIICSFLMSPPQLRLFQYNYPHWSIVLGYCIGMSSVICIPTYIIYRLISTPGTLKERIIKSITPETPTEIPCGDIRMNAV
T1 sequence (P23977 whole entry): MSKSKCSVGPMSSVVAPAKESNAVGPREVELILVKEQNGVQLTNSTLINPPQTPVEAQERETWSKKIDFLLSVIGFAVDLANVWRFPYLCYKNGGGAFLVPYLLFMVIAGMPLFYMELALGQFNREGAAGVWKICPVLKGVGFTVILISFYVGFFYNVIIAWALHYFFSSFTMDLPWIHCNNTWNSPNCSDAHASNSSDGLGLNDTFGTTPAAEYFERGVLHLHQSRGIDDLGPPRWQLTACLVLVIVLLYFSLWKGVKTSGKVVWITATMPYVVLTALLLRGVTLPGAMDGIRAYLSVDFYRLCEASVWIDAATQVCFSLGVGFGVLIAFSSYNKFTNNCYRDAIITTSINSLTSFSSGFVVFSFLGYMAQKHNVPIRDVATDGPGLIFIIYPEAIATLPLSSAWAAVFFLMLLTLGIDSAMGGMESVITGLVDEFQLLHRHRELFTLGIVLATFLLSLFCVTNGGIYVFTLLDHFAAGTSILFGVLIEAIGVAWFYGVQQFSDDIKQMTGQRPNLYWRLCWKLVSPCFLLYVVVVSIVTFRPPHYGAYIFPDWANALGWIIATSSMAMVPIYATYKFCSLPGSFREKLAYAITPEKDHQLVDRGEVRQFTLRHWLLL
T2 sequence (P23977 whole entry): as above

Row | SMILES | IC50 [1] [nM] | IC50 [2] [nM] | IC50 [3] [nM]
1 | CON=C[C@@H]1[C@@H](c2ccc(Cl)c(Cl)c2)C[C@@H]2CC[C@H]1N2C [(1R,2R,3S)-3-(3,4-dichlorophenyl)-tropane-2-O-methyl-aldoxime, H2 SO4] | 3 | 3 | 13
2 | CON=C[C@@H]1[C@@H](c2ccc(Cl)c(Cl)c2)C[C@@H]2CC[C@H]1N2 [(1R,2R,3S)-N-Normethyl-3-(3,4-dichlorophenyl)tropane-2-O-methyl-aldoxime, hydrochloride] | 2 | 6 | 1.7
